Reference: patent publication US10265329B2, “Altering steroid metabolism for treatment of steroid-dependent disease” (THE CLEVELAND CLINIC FOUNDATION, priority 2015, dated 2019)
“Also recorded” adds a separate entry of the source.

Assays:
VCaP CRPC xenografts = assay: VCaP CRPC xenograft growth under 5α-reduced Abi metabolites; assay type: in vivo; conditions: orchiectomized mice; i.p. daily up to 20 days; >30% growth
Description: Male NSG mice, 6 to 8 weeks of age were obtained from the Cleveland Clinic Biological Resources Unit facility. All mouse studies were conducted under a protocol approved by the Cleveland Clinic Institutional Animal Care and Use Committee. 10^7 VCaP cells were injected subcutaneously with matrigel. […] Control groups were administered 0.15 mL 5% benzyl alcohol and 95% safflower oil solution via intraperitoneal injection every day. Tumor volume was measured every other day, and time to increase in tumor volume by 30% was determined (2 sequential increases). Mice were sacrificed at treatment day 20. The significance of the difference between treatment groups was assessed by Kaplan-Meier survival analysis using a log-rank test in SigmaStat 3.5.

human 3βHSD1 = biological target: T1, human 3βHSD1 (Homo sapiens, UniProt P14060); assay: Recombinant 3βHSD1 enzyme assay, [3H]-pregnenolone metabolism (Lineweaver-Burk); assay type: biochemical; conditions: pregnenolone substrate; D4A 5-20 μmol/L
T1 construct: made in house; host or cells: yeast (microsomes)
T1 sequence (P14060 whole entry): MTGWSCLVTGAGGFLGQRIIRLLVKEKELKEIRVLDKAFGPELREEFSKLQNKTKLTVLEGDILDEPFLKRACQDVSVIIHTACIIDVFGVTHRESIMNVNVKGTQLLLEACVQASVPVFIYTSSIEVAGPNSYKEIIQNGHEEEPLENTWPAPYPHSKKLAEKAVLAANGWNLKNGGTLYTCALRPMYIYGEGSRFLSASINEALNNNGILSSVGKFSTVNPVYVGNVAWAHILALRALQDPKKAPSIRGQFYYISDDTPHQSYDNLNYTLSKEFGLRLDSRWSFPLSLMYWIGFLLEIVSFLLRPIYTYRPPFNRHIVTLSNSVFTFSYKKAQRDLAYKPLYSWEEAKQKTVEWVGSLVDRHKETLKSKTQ
Description: To test D4A as an inhibitor of 3βHSD, enzyme assays were performed as described previously. Li et al., Clin Cancer Res. 18:3571-3579 (2012). Briefly, incubations were prepared with recombinant human 3βHSD1 or 3βHSD2 (in yeast microsomes, 45 or 2.5 μg protein per incubation, respectively), [^3H]-pregnenolone (100,000 cpm, 1-20 μmol/L), and D4A (5-20 μmol/L) or ethanol vehicle in 0.5 mL of potassium phosphate buffer (pH 7.4). After a pre-incubation at 37° C. for 1 to 3 min, NAD (1 mmol/L) was added, and the incubation was conducted at 37° C. for 20 min. The reaction was stopped by addition of 1 mL ethyl acetate:isooctane (1:1), and the steroids were then extracted into the organic phase and dried. The steroids in the dried extracts were resolved by HPLC and quantitated by in-line scintillation counting

[1] = tested on: AR chromatin occupancy on PSA, TMPRSS2 and FKBP5 regulatory elements; assay: AR chromatin occupancy ChIP assay in LNCaP cells; assay type: cell-based, human; conditions: 3 h
Description: LNCaP cells were serum-starved for at least 48 h and treated with indicated drugs and DHT for 3 h. A ChIP assay was performed with an anti-AR antibody (Santa Cruz, sc-816) as described previously. Li et al., Proc Natl Acad Sci USA. 108:3116-3123 (2011). All of the precipitated DNA samples were quantified by qPCR and normalized to input DNA. All ChIP experiments were performed at least three times. Primers used for ChIP experiments are from experiments previously described. Evaul et al., Endocrinology, 151:3514-3520 (2010).

[2] = tested on: PSA, TMPRSS2 and FKBP5 expression; assay: Inhibition of androgen-responsive gene expression (qPCR); assay type: cell-based, human
Description: Cells were starved with phenol red-free and serum free-medium for at least 48 h and treated with the indicated drugs and/or androgens. RNA was extracted with a GenElute Mammalian Total RNA miniprep kit (Sigma-Aldrich). cDNA was synthesized from 1 μg RNA in a reverse transcription reaction using the iScript cDNA Synthesis Kit (Bio-Rad, Hercules, Calif.). Quantitative PCR (qPCR) analysis was conducted in triplicate with primers for PSA, TMPRSS2, FKBP5, and RPLPO described previously (Chang et al., Cell, 154:1074-1084 (2013), with an ABI 7500 Real-Time PCR machine (Applied Biosystems) using iTaq Fast SYBR Green Supermix with ROX (Bio-Rad) in 96-well plates at a final reaction volume of 20 μL. Accurate quantitation of each mRNA was achieved by normalizing the sample values to RPLPO and to vehicle-treated cells.

LNCaP cells = assay: Cell proliferation assay, DHT-stimulated growth; assay type: cell-based, human; conditions: DHT 0.5 nM, 2, 4 and 6 days
Description: LNCaP cells (0.1 million/mL) were seeded in 96-well plates and cultured in phenol red free RPMI-1640 mediums plus 10% charcoal stripped FBS with androgens and/or drugs. Medium was changed every other day. After 2, 4 or 6 days, cells were collected and lysed after treatment. Growth was then determined based on DNA content as detected by Hoechst stain and a Wallac Victor2 1420 Multilabel counter (Perkin Elmer). Two-tailed student's t-test was used to determine significance.

[3] = Serum deoxycorticosterone at end of xenograft study; assay type: in vivo; conditions: serum from treated mice at the end of the xenograft study
Description: Mouse serum collection, derivatization and extraction. […] Louis, Mo.). Steroids were extracted with methyl tert-butyl ether (Sigma Aldrich, St. Louis, Mo.), evaporated under a stream of nitrogen gas and reconstituted in methanol:water (50:50) prior to mass spectrometry analysis. Mouse serum analysis. Samples were analyzed on a Thermo TSQ Quantiva-Prelude SPLC system (Thermo Scientific, Waltham, Mass.) with Aria MX 2.1 and Tracefinder 3.2.368.22 software for instrument controls and quantitation. […] Steroids were ionized by electrospray ionization and in positive ion mode. […] Concentrations were determined using stable isotope dilution analysis.

[4] = Abi conversion to D4A in mouse serum after Abi acetate; assay type: in vivo; conditions: mice administered Abi acetate i.p.
Description: FIG. 1A-FIG. 1E provides chemical structures and graphs showing the structural consequences of the conversion from Abi to D4A that occurs in both mice, and patients, and requires 3βHSD. A, Schematic of Abi conversion to D4A. * double bond and C3-position for substrates and products of 3βHSD. B, Abi is converted to D4A in vivo. Abi acetate was injected i.p. in 5 mice. Blood was collected 2 h and 4 h after injection. Serum concentrations of Abi and D4A were quantified by mass spectrometry and are represented as the percentage of the sum total of Abi+D4A. C, D4A is detectable in all patients (n=12) with CRPC treated with Abi acetate. D, Representative mass spectrometry tracing of D4A and Abi from the serum of a patient treated with Abi acetate. E, 3βHSD1 is capable of converting Abi to D4A. LAPC4 cells overexpressing 3βHSD1 were treated with 10 μM Abi (or [^3H]-DHEA) for 24 h. Abi, D4A (as a percentage of Abi+D4A), [^3H]-DHEA and [^3H]-DHEA metabolites (labeled metabolites), were separated by HPLC. Results are shown as mean (n=3)±s.d. with biological replicates. The experiment was repeated independently at least 3 times.

Structure (SMILES)	progression-free survival compared to control xenografts (VCaP CRPC xenografts)	type of inhibition of 3βHSD1 (human 3βHSD1)	inhibition of DHT-induced AR chromatin occupancy [1]	suppression of PSA, TMPRSS2 and FKBP5 expression compared to Abi ([2]; induced by DHT, DHEA and R1881, LNCAP, LAPC4 and C4-2 cell lines)	inhibition of DHT-induced endogenous PSA expression ([2]; mutant and wild-type AR (LNCaP and LAPC4))	effect on DHT-stimulated cell growth (LNCaP cells)	serum deoxycorticosterone [3]	detection in sera of mice [4]
C[C@]12CCC(=O)C[C@@H]1CC[C@@H]1[C@@H]2CC[C@]2(C)C(c3cccnc3)=CC[C@@H]12 [Compound 5α-Abi, 17-(3-pyridyl)-5α-androsta-16-ene-3-one]	significantly shortened progression-free survival							
C[C@]12CCC(=O)C=C1CC[C@@H]1[C@@H]2CC[C@]2(C)C(c3cccnc3)=CC[C@@H]12 [Compound D4A, 17-(3-Pyridyl)androsta-4,16-dien-3-one]		mixed competitive-noncompetitive inhibition; also recorded: mixed inhibition kinetics	superior to Abi and somewhat lower than enzalutamide	clearly better suppresses	equivalent to enzalutamide	more potent than Abi	no detectable increase	detectable
C[C@]12CC[C@@H](O)C[C@@H]1CC[C@@H]1[C@@H]2CC[C@]2(C)C(c3cccnc3)=CC[C@@H]12 [Compound 3α-OH-5α-Abi, 17-(3-pyridyl)-5α-androsta-16-ene-3α-ol]	no detectable effect							
